{
  "source": "patent US9192673B2",
  "about": "“Fine dry particulate resveratrol active agent compositions and topical formulations including the same” (priority 2013, dated 2015)",
  "origin": "cited, not measured here",
  "conditions": "background statement",
  "data": [
    {"compound": "Oc1ccc(/C=C/c2cc(O)cc(O)c2)cc1", "note": "[resveratrol, 3,5,4′-trihydroxystilbene]", "values": [
      {"measurement": "solubility in water and in lipophilic components", "result": "almost insoluble"}
    ]}
  ]
}
